{"source": "paper PMC8634903", "about": "“Effects of Dicyclohexyl Phthalate Exposure on PXR Activation and Lipid Homeostasis in Mice” (Environmental Health Perspectives, 2021)", "key": {"[1]": {"target": "T1, pregnane X receptor (hPXR) (Homo sapiens, UniProt O75469)", "T1 construct": "gene NR1I2", "T1 sequence (O75469 130-434 limits assumed)": "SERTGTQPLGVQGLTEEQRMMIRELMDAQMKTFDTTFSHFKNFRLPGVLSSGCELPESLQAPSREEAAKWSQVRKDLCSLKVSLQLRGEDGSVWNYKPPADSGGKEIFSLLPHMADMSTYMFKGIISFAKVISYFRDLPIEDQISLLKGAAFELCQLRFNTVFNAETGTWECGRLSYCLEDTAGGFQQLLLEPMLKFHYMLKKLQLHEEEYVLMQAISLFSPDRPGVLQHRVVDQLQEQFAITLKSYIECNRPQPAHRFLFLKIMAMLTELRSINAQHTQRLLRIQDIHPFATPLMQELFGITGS", "assay": "LanthaScreen TR-FRET competitive binding assay with recombinant GST-hPXR LBD (positive control); also cell reporter assay"}, "[2]": {"target": "T2, rat pregnane X receptor (rPXR) (Rattus norvegicus, UniProt Q9R1A7)", "T2 construct": "gene Nr1i2", "T2 sequence (Q9R1A7 143-431 limits assumed)": "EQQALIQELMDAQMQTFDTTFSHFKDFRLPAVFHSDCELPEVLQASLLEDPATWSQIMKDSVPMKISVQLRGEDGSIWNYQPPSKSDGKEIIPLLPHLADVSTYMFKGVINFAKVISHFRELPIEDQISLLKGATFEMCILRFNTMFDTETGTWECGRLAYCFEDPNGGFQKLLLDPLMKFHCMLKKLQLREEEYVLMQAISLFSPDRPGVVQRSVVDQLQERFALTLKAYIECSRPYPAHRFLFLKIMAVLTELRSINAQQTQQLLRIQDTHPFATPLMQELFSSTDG", "assay": "GAL4-LBD luciferase reporter assay in LS180 cells at […] DCHP", "format": "cell-based"}, "[3]": {"target": "T1, pregnane X receptor (hPXR)", "assay": "LanthaScreen TR-FRET competitive binding assay with recombinant GST-hPXR LBD; also cell reporter assay (EC50 […])"}}, "data": [{"smiles": "CCCCC(CC)COC(=O)c1ccccc1C(=O)OCC(CC)CCCC", "note": "(stereo not drawn) [DEHP, di(2-ethylhexyl) phthalate]", "values": [{"measurement": "LanthaScreen TR-FRET competitive binding assay with recombinant GST-hPXR LBD (po)", "setting": "[1]", "result": "inhibition of FRET between fluorescein-labeled PXR ligand and recombinant GST-PXR LBD by DCHP and DEHP"}]}, {"smiles": "O=C(OC1CCCCC1)c1ccccc1C(=O)OC1CCCCC1", "note": "[DCHP, dicyclohexyl phthalate]", "values": [{"measurement": "GAL4-LBD luciferase reporter assay in LS180 cells at 10 μM DCHP", "setting": "[2]", "result": "DCHP activated three forms of PXR including hPXR, mPXR, and rat PXR (rPXR)"}, {"measurement": "IC50", "setting": "[3]", "result": 7.3, "unit": "µM"}]}]}
